The source of these data is US20260083704A1, “LXR MODULATORS WITH BICYCLIC CORE MOIETY FOR TREATING DYSLIPIDEMIAS” (OrsoBio, Inc., priority 2022, published 2026).

Each structure is given as a SMILES string. Where only a bound is given, the exact number is not on record here.

For data set [1], the target named is T1, LXRβ (Homo sapiens, UniProt P55055).
T1 sequence (P55055 1-460): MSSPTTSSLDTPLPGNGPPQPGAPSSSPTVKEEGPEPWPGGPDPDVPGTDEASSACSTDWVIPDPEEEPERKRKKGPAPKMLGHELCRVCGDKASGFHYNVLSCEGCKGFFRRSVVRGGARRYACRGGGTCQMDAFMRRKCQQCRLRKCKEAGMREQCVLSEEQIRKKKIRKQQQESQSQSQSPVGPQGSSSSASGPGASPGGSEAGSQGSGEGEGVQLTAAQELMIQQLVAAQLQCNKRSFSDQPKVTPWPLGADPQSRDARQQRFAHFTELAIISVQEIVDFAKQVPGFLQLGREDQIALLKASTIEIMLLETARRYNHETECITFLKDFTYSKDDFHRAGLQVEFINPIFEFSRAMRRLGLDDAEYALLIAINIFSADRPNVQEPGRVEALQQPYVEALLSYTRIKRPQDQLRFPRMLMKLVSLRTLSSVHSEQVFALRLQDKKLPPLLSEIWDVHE
As to the kind of experiment: Biochemical binding assay LXRβ. The note with it: mean ± SD. The method, then: (§1) The potencies of Compound 21/3 and its analog, Compound pre-6/3, against LXRα and LXRβ were evaluated in biochemical binding assays, cellular mammalian two-hybrid (M2H) interaction assays evaluating nuclear receptor co-repressor (NCOR) recruitment, and cellular reporter assays evaluating transcriptional activity (Table 5).

Data set [2] concerns the target LXRβ (Homo sapiens, UniProt P55055). As to the kind of experiment: LXR Gal4 reporter transient transfection assay (mammalian two-hybrid, HEK293), LXRβ. In kind it is cell-based. The note with it: HEK293, NCOR recruitment, mean ± SD; read-out: HEK293 LXRβ/NCOR recruitment (M2H) EC50. Put shortly:
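HEK293 cells transiently co-transfected with full-length or LBD LXRα/LXRβ fused to NFkB activation domain, GAL4-DBD-fused SRC1 or NCoR cofactor domain, GAL4-responsive firefly luciferase reporter and Renilla control. Compound added 4 h post-transfection (≤0.2% DMSO), incubated 16 h; firefly and Renilla luminescence read sequentially.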
Target sequence in this assay (O75376 1906-2312 partner, one chain of several): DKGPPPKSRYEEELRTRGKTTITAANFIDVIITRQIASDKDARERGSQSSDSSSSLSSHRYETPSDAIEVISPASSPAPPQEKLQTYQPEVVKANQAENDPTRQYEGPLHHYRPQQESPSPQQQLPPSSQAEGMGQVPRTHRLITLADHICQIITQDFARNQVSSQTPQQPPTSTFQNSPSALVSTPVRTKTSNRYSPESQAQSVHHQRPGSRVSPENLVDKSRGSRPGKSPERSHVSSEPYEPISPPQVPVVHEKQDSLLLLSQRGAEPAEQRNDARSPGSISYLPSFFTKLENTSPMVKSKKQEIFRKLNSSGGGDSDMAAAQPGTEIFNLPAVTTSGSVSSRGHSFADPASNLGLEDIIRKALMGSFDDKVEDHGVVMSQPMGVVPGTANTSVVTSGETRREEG

Data set [3] has as its target T2, LXRα (Homo sapiens, UniProt Q13133).
T2 sequence (Q13133 1-447): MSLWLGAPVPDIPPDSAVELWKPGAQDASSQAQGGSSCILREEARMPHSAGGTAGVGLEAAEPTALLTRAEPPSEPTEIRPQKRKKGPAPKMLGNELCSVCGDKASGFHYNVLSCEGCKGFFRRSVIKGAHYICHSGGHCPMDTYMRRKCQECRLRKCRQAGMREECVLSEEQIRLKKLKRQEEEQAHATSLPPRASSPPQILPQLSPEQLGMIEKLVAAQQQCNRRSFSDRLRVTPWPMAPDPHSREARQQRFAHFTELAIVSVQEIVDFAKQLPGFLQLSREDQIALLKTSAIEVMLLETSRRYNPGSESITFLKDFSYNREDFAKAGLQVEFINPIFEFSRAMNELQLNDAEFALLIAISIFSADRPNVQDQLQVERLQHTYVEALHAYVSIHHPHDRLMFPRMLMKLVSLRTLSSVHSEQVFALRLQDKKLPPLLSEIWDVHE
Kind of data set: Biochemical binding assay LXRα. The note with it: mean ± SD; read-out: LXα binding EC50. The procedure:
as §1

Data set [4] concerns the target T3, LXRα (Homo sapiens, UniProt Q13133).
T3 construct: full length (FL) proteins of LXRα (amino acids 1-447); NP005684
As to the kind of experiment: LXR Gal4 reporter transient transfection assay (mammalian two-hybrid, HEK293), LXRα. In kind it is cell-based. The note with it: HEK293, NCOR recruitment, mean ± SD; read-out: HEK293 LXRα/NCOR recruitment (M2H) EC50. The method, then: (§2) LXRα and LXRβ activity status was determined via detection of interaction with coactivator and corepressor proteins in mammalian two-hybrid experiments (M2H). For this, via transient transfection the full length (FL) proteins of LXRα (amino acids 1-447; NP005684; SEQ ID NO:1) or LXRβ-(amino acids 1-461; NP009052; SEQ ID NO:2) or the ligand-binding domains (LBD) of LXRα (amino acids 155-447 SEQ ID NO:3) or LXRβ (amino acids 156-461; SEQ ID NO:4) were expressed from pCMV-AD (Stratagene) as fusions to the transcriptional activation domain of NFkB. As cofactors, domains of either the steroid receptor coactivator 1 (SRC1; amino acids 552-887; SEQ ID NO:5) or of the corepressor NCoR (amino acids 1906-2312; NP006302; SEQ ID NO:6) were expressed as fusions to the DNA binding domain of the yeast transcription factor GAL4 (from pCMV-BD; Stratagene). Interaction was monitored via activation of a coexpressed Firefly Luciferase Reporter gene under control of a promoter containing repetitive GAL4 response elements (vector pFRLuc; Stratagene). Transfection efficiency was controlled via cotransfection of constitutively active pRL-CMV Renilla reniformis luciferase reporter (Promega). HEK293 cells were grown in minimum essential medium (MEM) with 2 mM L-glutamine and Earle's balanced salt solution supplemented with 8.3% fetal bovine serum, 0.1 mM non-essential amino acids, 1 mM sodium pyruvate, at 37° C. in 5% CO2. 3.5×10^4 cells/well were plated in 96-well cell culture plates in growth medium supplemented with 8.3% fetal bovine serum for 16-20 h to ˜90% confluency. For transfection, medium was taken off and LXR and cofactor expressing plasmids as well as the reporter plasmids are added in 30 μL OPTIMEM/well including polyethylene-imine (PEI) as vehicle. Typical amounts of plasmids transfected/well: pCMV-AD-LXR (5 ng), pCMV-BD-cofactor (5 ng), pFR-Luc (100 ng), pRL-CMV (0.5 ng). Compound stocks were prepared in DMSO, prediluted in MEM to a total volume of 120 μL, and added 4 h after addition of the transfection mixture (final vehicle concentration not exceeding 0.2%). Cells were incubated for additional 16 h, lysed for 10 min in 1×Passive Lysis Buffer (Promega) and Firefly and Renilla luciferase activities were measured sequentially in the same cell extract using buffers containing D-luciferine and coelenterazine, respectively. Measurements of luminescence were done in a BMG-luminometer.
as §1

A short description of data set [5]: Pharmacokinetics in mice after single oral dosing (blood/plasma and liver exposure). In kind it is in vivo. The conditions noted are these: 20 mg/kg single oral dose.
For data set [6], the target named is T2, LXRα. Kind of data set: LXR Gal4 reporter transient transfection assay (mammalian two-hybrid, HEK293), LXRα. In kind it is cell-based. The conditions noted are these: full length (FL) LXRα, HEK293; read-out: FL-M2H Gal4α. More on the design: expressed in transfected cells; host or cells: HEK293. The method, then: as §2, §1

Regarding `N#Cc1cccc(C#N)c1-c1c(-c2cccc(-c3ccc(C(=O)O)cc3Cl)c2)n(S(=O)(=O)c2ccc(C(F)F)cc2)c2ccc(F)cc12` [pre-6/3], the EC50 on LXRβ [1] worked out at 0.017 ± 0.007 µM; at LXRβ [2], 0.0004 ± 0.0002 µM; on LXRα [3], 0.014 ± 0.005 µM; on LXRα [4], 0.0002 ± 0.0001 µM.

For the compound `Cc1ccc(S(=O)(=O)n2c(-c3cccc(-c4ccc(C(=O)O)cc4)c3)c(-c3ccsc3C#N)c3cc(F)ccc32)cc1` [5/3], in data set [5] (time point 4 h), the blood/plasma exposure result is recorded as “C (100 nM to <300 nM)”, the liver exposure result is “C (1 μM to ≤3 μM)” and the liver/blood ratio result is listed as “C (10 to ≤30)”.

For the compound `Cc1ccc(S(=O)(=O)n2c(-c3cccc(-c4ccc(C(=O)O)cc4)c3)c(-c3ccsc3C#N)c3cc(F)ccc32)cc1C` [23/2], in data set [5] (time point 4 h), the blood/plasma exposure result is “B (300 nM to ≤1 μM)”, the liver exposure entry is listed as “D (>3 μM)” and the liver/blood ratio entry is “C (10 to ≤30)”.

For the compound `CS(=O)(=O)NC(=O)c1ccc(-c2cccc(-c3c(-c4c(C#N)cccc4C#N)c4cc(F)ccc4n3S(=O)(=O)c3ccc(C(F)F)cc3)c2)c(Cl)c1` [32/5], the EC50 on LXRα [6] is less than 0.1 µM.

For `N#Cc1sccc1-c1c(-c2cccc(-c3ccc(C(=O)O)cc3Cl)c2)n(S(=O)(=O)c2ccc(C(F)F)cc2)c2ccc(F)cc12` [11/17], the EC50 on LXRα [6] was less than 0.1 µM.

For the compound `N#Cc1cccc(C#N)c1-c1c(-c2cccc([C@H]3CC[C@H](C(=O)O)CC3)c2)n(S(=O)(=O)c2ccc(C(F)F)cc2)c2ccc(F)cc12` [11/62], at LXRα [6], the EC50 is less than 0.1 µM.

With `Cc1ccc(S(=O)(=O)n2c(-c3cccc(-c4ccc(C(=O)O)cc4Cl)c3)c(-c3ccsc3C#N)c3cc(F)ccc32)cc1` [3/48], the liver exposure entry in data set [5] (time point 12 h) was “A (<300 nM)”. In data set [5] (time point 12 h, number is the LLOQ), the “blood/plasma exposure (below LLOQ)” value is “(1.2 ng/mL)”.

As for `N#Cc1cccc(C#N)c1-c1c(-c2cccc(-c3ccc(C(=O)NCC(=O)O)cc3Cl)c2)n(S(=O)(=O)c2ccc(C(F)F)cc2)c2ccc(F)cc12` [Compound 21/3], the EC50 worked out at 0.015 ± 0.003 µM at LXRβ [1], 0.011 ± 0.019 µM at LXRβ [2], 0.007 ± 0.016 µM on LXRα [3] and 0.008 ± 0.007 µM on LXRα [4].
